Patent US9326987B2 (priority 2010, dated 2016)
Counter-ions that a name gives are not always drawn. Like-named read-outs stand apart in the source and are kept apart here.

Assays:
A549 cells = conditions: concentration resulting in 50% cell death, absence of virus; for CC50: read-out: TC50
B/Russia/69 = experiment: Influenza virus cytoprotection assay in A549 cells (MTS); assay type: cell-based; conditions: unidentified influenza virus, A549, 168 h
A/Victoria/3/75 (H3N2) = experiment: as above; assay type: cell-based; conditions: for IC50: 168 h, reduction in viral cytopathic effects, 7 days
A/PR/8/34 (H1N1) = experiment: as above; assay type: cell-based; conditions: for IC50: 168 h, reduction in viral cytopathic effects, 7 days; for inhibition at 10 µM: 10 μM compound, read-out: inhibition observed at 10 μM
B/Lee/40 = experiment: as above; assay type: cell-based; conditions: A549, 168 h
A/Hong Kong/8/68 (H3N2) = experiment: as above; assay type: cell-based; conditions: for IC50: 168 h, reduction in viral cytopathic effects, 7 days; for inhibition at 10 µM: 10 μM compound, read-out: inhibition observed at 10 μM
A/WS/33 (H1N1) = experiment: as above; assay type: cell-based; conditions: for IC50: 168 h, reduction in viral cytopathic effects, 7 days; for inhibition at 10 µM: 10 μM compound, read-out: inhibition observed at 10 μM
in vitro = conditions: human

Row | Structure (SMILES) | IC50 (B/Russia/69) | IC50 (A/Victoria/3/75 (H3N2)) | IC50 (A/PR/8/34 (H1N1)) | IC50 (B/Lee/40) | IC50 (A/Hong Kong/8/68 (H3N2)) | IC50 (A/WS/33 (H1N1)) | CC50 (A549 cells; A/PR/8/34 (H1N1)) | CC50 (A549 cells; A/Victoria/3/75 (H3N2)) | CC50 (A549 cells; A/WS/33 (H1N1)) | CC50 (A549 cells; B/Lee/40) | CC50 (A549 cells; B/Russia/69) | CC50 (in vitro) | inhibition at 10 µM (A/PR/8/34 (H1N1)) | inhibition at 10 µM (A/Hong Kong/8/68 (H3N2)) | inhibition at 10 µM (A/WS/33 (H1N1)) | other results
1 | NC(=O)c1ncn([C@@H]2O[C@H](CO)[C@@H](O)[C@H]2O)n1 [Ribavirin, ribavirin] | 4.75 µg/mL | 6.01 µg/mL | 7.35 µg/mL | 6.65 µg/mL | 6.59 µg/mL | 7.34 µg/mL |  |  |  |  |  |  |  |  |  | TC50 (A549 cells; A/PR/8/34 (H1N1)): >100 µg/mL; TC50 (A549 cells; A/Victoria/3/75 (H3N2)): >100 µg/mL; TC50 (A549 cells; A/WS/33 (H1N1)): >100 µg/mL; TC50 (A549 cells; B/Lee/40): >100 µg/mL; TC50 (A549 cells; B/Russia/69): >100 µg/mL; TC50 (A549 cells; table row A/Hong Kong/8/68 (H3N2)): >100 µg/mL
2 | CC(C)N1CCN(Cc2cnc(-c3cc(-c4cccc5[nH]ccc45)cc4[nH]ncc34)o2)CC1 [Compound A, 6-(1H-indol-4-yl)-4-(5-{[4-(1-methylethyl)-1-piperazinyl]methyl}-1,3-oxazol-2-yl)-1H-indazole hydrochloride] | 3.53 µM | 9.19 µM |  | 4.61 µM |  |  | > 10 µM | > 10 µM | > 10 µM | > 10 µM | > 10 µM | > 10 µM | 15.9% | 40.4% | 21.4% | 
3 | CC(=O)N[C@H]1[C@H]([C@H](O)[C@H](O)CO)OC(C(=O)O)=C[C@@H]1N=C(N)N [Zanamivir, zinamavir] | 3.25 µM | 0.832 µM | […] | 2.52 µM | 0.871 µM | 0.743 µM | > 100 µM | > 100 µM | > 100 µM | > 100 µM | > 100 µM | > 100 µM |  |  |  | 
4 | COc1ncc(-c2cc(-c3ncc(CN4C[C@@H](C)O[C@@H](C)C4)o3)c3cn[nH]c3c2)cc1NS(C)(=O)=O [Compound B, N-[5-[4-(5-{[(2R,6S)-2,6-dimethyl-4-morpholinyl]methyl}-1,3-oxazol-2-yl)-1H-indazol-6-yl]-2-(methyloxy)-3-pyridinyl]methanesulfonamide] | 4.65 µM |  |  | 7.94 µM |  |  | > 10 µM | > 10 µM | > 10 µM | > 10 µM | > 10 µM | > 10 µM | 35% | 13.7% | 0.1% | inhibition at 10 µM (A/Victoria/3/75 (H3N2); 10 μM compound, read-out: inhibition observed at 10 μM): 11.4%
